From patent publication US20220153754A1 (JANSSEN SCIENCES IRELAND UNLIMITED COMPANY, priority 2019, published 2022)

Tested on: HBV
Assay: HBV replication inhibition assay (BDNA assay)
Type: cell-based
Conditions: Hepatitis B virus, HepG2.2.15, 144 h, HepG2.2.15 cells, incubated with compound for 6 days, encapsidated HBV DNA from supernatant detected by branched DNA QuantiGene assay
Protocol: HBV replication inhibition by the disclosed compounds were determined in cells infected or transfected with HBV or cells with stably integrated HBV, such as HepG2.2.15 cells (Sells et al. 1987). In this example, HepG2.2.15 cells were maintained in cell culture medium containing 10% fetal bovine serum (FBS), Geneticin, L-glutamine, penicillin and streptomycin. HepG2.2.15 cells were seeded in 96-well plates at a density of 40,000 cells/well and were treated with serially diluted compounds at a final DMSO concentration of 0.5% either alone or in combination by adding drugs in a checker box format. Cells were incubated with compounds for three days, after which medium was removed and fresh medium containing compounds was added to cells and incubated for another three days. At day 6, supernatant was removed and treated with DNase at 37° C. for 60 minutes, followed by enzyme inactivation at 75° C. for 15 minutes. Encapsidated HBV DNA was released from the virions and covalently linked HBV polymerase by incubating in lysis buffer (Affymetrix QS0010) containing 2.5 μg proteinase K at 50° C. for 40 minutes. HBV DNA was denatured by addition of 0.2 M NaOH and detected using a branched DNA (BDNA) QuantiGene assay kit according to manufacturer recommendation (Affymetrix). HBV DNA levels were also quantified using qPCR, based on amplification of encapsidated HBV DNA extraction with QuickExtraction Solution (Epicentre Biotechnologies) and amplification of HBV DNA using HBV specific PCR probes that can hybridize to HBV DNA and a fluorescently labeled probe for quantitation. In addition, cell viability of HepG2.2.15 cells incubated with test compounds alone or in combination was determined by using CellTitre-Glo reagent according to the manufacturer protocol (Promega). The mean background signal from wells containing only culture medium was subtracted from all other samples, and percent inhibition at each compound concentration was calculated by normalizing to signals from HepG2.2.15 cells treated with 0.5% DMSO using equation E1.
where DMSOave is the mean signal calculated from the wells that were treated with DMSO control (0% inhibition control) and Xi is the signal measured from the individual wells. EC50 values, effective concentrations that achieved 50% inhibitory effect, were determined by non-linear fitting using Graphpad Prism software (San Diego, Calif.) and equation E2.
where Y represents percent inhibition values and X represents the logarithm of compound concentrations.
Selected disclosed compounds were assayed in the HBV replication assay (BDNA assay), as described above, and a representative group of these active compounds is shown in Table 3.

SMILES	EC50 [nM]
O=C(Nc1ccc(F)c(C(F)(F)F)c1)N1CCc2nn3c(c2C1)-c1nocc1CC(COCC(F)F)C3 (single isomer, unassigned) [Example 6, (5S*)-5-((2,2-Difluoroethoxy)methyl)-N-(4-fluoro-3-(trifluoromethyl)phenyl)-5,6,9,10-tetrahydro-4H-isoxazolo[3,4-c]pyrido[4′,3′:3,4]pyrazolo[1,5-a]azepine-11(12H)-carboxamide]	45
O=C(Nc1ccc(F)c(C(F)(F)F)c1)N1CCc2nn3c(c2C1)-c1nocc1C[C@@H](COCC(F)F)C3 (single isomer, unassigned) [Example 8, (5R*)-5-((2,2-Difluoroethoxy)methyl)-N-(4-fluoro-3-(trifluoromethyl)phenyl)-5,6,9,10-tetrahydro-4H-isoxazolo[3,4-c]pyrido[4′,3′:3,4]pyrazolo[1,5-a]azepine-11(12H)-carboxamide]	26
C=C1Cc2conc2-c2c3c(nn2C1)CCN(C(=O)Nc1ccc(F)c(C#N)c1)C3 [Example 1, N-(3-Cyano-4-fluorophenyl)-5-methylene-5,6,9,10-tetrahydro-4H-isoxazolo[3,4-c]pyrido[4′,3′:3,4]pyrazolo[1,5-a]azepine-11(12H)-carboxamide]	64
C=C1Cc2conc2-c2c3c(nn2C1)CCN(C(=O)Nc1ccc(F)c(C(F)(F)F)c1)C3 [Example 2, N-(4-Fluoro-3-(trifluoromethyl)phenyl)-5-methylene-5,6,9,10-tetrahydro-4H-isoxazolo[3,4-c]pyrido[4′,3′:3,4]pyrazolo[1,5-a]azepine-11(12H)-carboxamide]	75
N#Cc1cc(NC(=O)N2CCc3nn4c(c3C2)-c2nocc2CC(CO)C4)ccc1F (stereo not drawn) [Example 3, N-(3-Cyano-4-fluorophenyl)-5-(hydroxymethyl)-5,6,9,10-tetrahydro-4H-isoxazolo[3,4-c]pyrido[4′,3′:3,4]pyrazolo[1,5-a]azepine-11(12H)-carboxamide]	23
O=C(Nc1ccc(F)c(C(F)(F)F)c1)N1CCc2nn3c(c2C1)-c1nocc1CC(CO)C3 (stereo not drawn) [Example 4, N-(4-Fluoro-3-(trifluoromethyl)phenyl)-5-(hydroxymethyl)-5,6,9,10-tetrahydro-4H-isoxazolo[3,4-c]pyrido[4′,3′:3,4]pyrazolo[1,5-a]azepine-11(12H)-carboxamide]	57
C=C1Cc2cnoc2-c2c3c(nn2C1)CCN(C(=O)Nc1ccc(F)c(C#N)c1)C3 [Example 9, N-(3-Cyano-4-fluorophenyl)-5-methylene-5,6,9,10-tetrahydro-4H-isoxazolo[5,4-c]pyrido[4′,3′:3,4]pyrazolo[1,5-a]azepine-11(12H)-carboxamide]	800
C=C1Cc2cnoc2-c2c3c(nn2C1)CCN(C(=O)Nc1ccc(F)c(C(F)(F)F)c1)C3 [Example 10, N-(4-Fluoro-3-(trifluoromethyl)phenyl)-5-methylene-5,6,9,10-tetrahydro-4H-isoxazolo[5,4-c]pyrido[4′,3′:3,4]pyrazolo[1,5-a]azepine-11(12H)-carboxamide]	350
N#Cc1cc(NC(=O)N2CCc3nn4c(c3C2)-c2nocc2CC(O)C4)ccc1F (stereo not drawn) [Example 11, N-(3-Cyano-4-fluorophenyl)-5-hydroxy-5,6,9,10-tetrahydro-4H-isoxazolo[3,4-c]pyrido[4′,3′:3,4]pyrazolo[1,5-a]azepine-11(12H)-carboxamide]	43
CC1Cc2conc2-c2c3c(nn2C1)CCN(C(=O)Nc1ccc(F)c(C(F)(F)F)c1)C3 (stereo not drawn) [Example 12, N-(4-Fluoro-3-(trifluoromethyl)phenyl)-5-methyl-5,6,9,10-tetrahydro-4H-isoxazolo[3,4-c]pyrido[4′,3′:3,4]pyrazolo[1,5-a]azepine-11(12H)-carboxamide]	52
CC1Cc2conc2-c2c3c(nn2C1)CCN(C(=O)Nc1ccc(F)c(C#N)c1)C3 (stereo not drawn) [Example 13, N-(3-Cyano-4-fluorophenyl)-5-methyl-5,6,9,10-tetrahydro-4H-isoxazolo[3,4-c]pyrido[4′,3′:3,4]pyrazolo[1,5-a]azepine-11(12H)-carboxamide]	52
C[C@@H]1Cc2nn3c(c2CN1C(=O)Nc1ccc(F)c(C#N)c1)-c1oncc1CCC3 [Example 14, (10R)—N-(3-Cyano-4-fluorophenyl)-10-methyl-5,6,9,10-tetrahydro-4H-isoxazolo[5,4-c]pyrido[4′,3′:3,4]pyrazolo[1,5-a]azepine-11(12H)-carboxamide]	59
C[C@@H]1Cc2nn3c(c2CN1C(=O)Nc1ccc(F)c(C(F)(F)F)c1)-c1oncc1CCC3 [Example 15, (10R)—N-(4-Fluoro-3-(trifluoromethyl)phenyl)-10-methyl-5,6,9,10-tetrahydro-4H-isoxazolo[5,4-c]pyrido[4′,3′:3,4]pyrazolo[1,5-a]azepine-11(12H)-carboxamide]	83
C[C@@H]1Cc2nn3c(c2CN1C(=O)Nc1ccc(F)c(C#N)c1)-c1ncccc1CCC3 [Example 16, (11R)—N-(3-Cyano-4-fluorophenyl)-11-methyl-6,7,10,11-tetrahydro-5H-pyrido[2,3-c]pyrido[4′,3′:3,4]pyrazolo[1,5-a]azepine-12(13H)-carboxamide]	330
C[C@@H]1Cc2nn3c(c2CN1C(=O)Nc1ccc(F)c(C(F)(F)F)c1)-c1ncccc1CCC3 [Example 17, (11R)—N-(4-Fluoro-3-(trifluoromethyl)phenyl)-11-methyl-6,7,10,11-tetrahydro-5H-pyrido[2,3-c]pyrido[4′,3′:3,4]pyrazolo[1,5-a]azepine-12(13H)-carboxamide]	220
C[C@@H]1Cc2nn3c(c2CN1C(=O)Nc1ccc(F)c(C#N)c1)-c1nocc1CCC3 [Example 18, (10R)—N-(3-Cyano-4-fluorophenyl)-10-methyl-5,6,9,10-tetrahydro-4H-isoxazolo[3,4-c]pyrido[4′,3′:3,4]pyrazolo[1,5-a]azepine-11(12H)-carboxamide]	15
C[C@@H]1Cc2nn3c(c2CN1C(=O)Nc1ccc(F)c(C(F)(F)F)c1)-c1nocc1CCC3 [Example 19, (10R)—N-(4-Fluoro-3-(trifluoromethyl)phenyl)-10-methyl-5,6,9,10-tetrahydro-4H-isoxazolo[3,4-c]pyrido[4′,3′:3,4]pyrazolo[1,5-a]azepine-11(12H)-carboxamide]	27
O=C(Nc1ccc(F)c(Cl)c1)N1CCc2nn3c(c2C1)-c1nncn1CCC3 [Example 20, N-(3-Chloro-4-fluorophenyl)-6,7,10,11-tetrahydro-5H-pyrido[4′,3′:3,4]-pyrazolo[1,5-a][1,2,4]triazolo[3,4-c][1,4]diazepine-12(13H)-carboxamide]	2000
Cc1nnc2n1CCCn1nc3c(c1-2)CN(C(=O)Nc1ccc(F)c(Cl)c1)CC3 [Example 21, N-(3-Chloro-4-fluorophenyl)-3-methyl-6,7,10,11-tetrahydro-5H-pyrido-[4′,3′:3,4]pyrazolo[1,5-a][1,2,4]triazolo[3,4-c][1,4]diazepine-12(13H)-carboxamide]	2700
C[C@@H]1Cc2nn3c(c2CN1C(=O)Nc1ccc(F)c(Cl)c1)-c1nncn1CCC3 [Example 22, (R)—N-(3-Chloro-4-fluorophenyl)-11-methyl-6,7,10,11-tetrahydro-5H-pyrido[4′,3′:3,4]pyrazolo[1,5-a][1,2,4]triazolo[3,4-c][1,4]diazepine-12(13H)-carboxamide]	> 4000
Cc1nnc2n1CCCn1nc3c(c1-2)CN(C(=O)Nc1ccc(F)c(Cl)c1)[C@H](C)C3 [Example 23]	> 4000
